{
  "source": "patent US11957759B1",
  "about": "“Rapidly accelerated fibrosarcoma (RAF) degrading compounds and associated methods of use” (Arvinas Operations, Inc., priority 2022, dated 2024)",
  "key": {"[1]": {"target": "T1, B-RAF G466V (Homo sapiens, UniProt P15056, G466V)", "T1 construct": "expressed in transfected cells; host or cells: T-Rex 293 cells (Invitrogen #R71007)", "T1 sequence (P15056 whole entry G466V)": "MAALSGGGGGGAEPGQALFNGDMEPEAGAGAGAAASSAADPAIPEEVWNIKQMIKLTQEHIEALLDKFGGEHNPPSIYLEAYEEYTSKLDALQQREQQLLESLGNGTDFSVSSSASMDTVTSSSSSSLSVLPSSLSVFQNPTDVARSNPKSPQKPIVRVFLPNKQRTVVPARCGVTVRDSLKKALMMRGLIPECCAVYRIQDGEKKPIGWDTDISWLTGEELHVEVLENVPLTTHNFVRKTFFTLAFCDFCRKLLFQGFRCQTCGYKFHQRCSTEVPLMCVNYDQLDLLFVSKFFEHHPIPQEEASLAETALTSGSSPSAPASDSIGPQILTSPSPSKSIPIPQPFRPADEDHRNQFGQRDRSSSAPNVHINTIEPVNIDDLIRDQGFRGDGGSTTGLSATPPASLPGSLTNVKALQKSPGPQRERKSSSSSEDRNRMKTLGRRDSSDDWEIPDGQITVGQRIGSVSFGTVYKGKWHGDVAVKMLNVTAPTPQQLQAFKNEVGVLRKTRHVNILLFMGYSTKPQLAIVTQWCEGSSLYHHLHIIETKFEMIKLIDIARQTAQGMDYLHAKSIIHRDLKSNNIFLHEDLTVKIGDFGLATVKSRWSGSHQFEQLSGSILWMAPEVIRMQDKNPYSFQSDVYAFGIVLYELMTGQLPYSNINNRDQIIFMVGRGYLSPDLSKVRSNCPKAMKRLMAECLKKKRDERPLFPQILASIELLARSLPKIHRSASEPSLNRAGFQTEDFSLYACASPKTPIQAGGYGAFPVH", "assay": "Target protein degradation, assay B: T-Rex 293 cells, HA-B-RAF_G466V, 96 well format", "assay_type": "cell-based", "settings": "T-Rex 293 HA-B-RAF_G466V cells, 24 hours, Examples 1-82", "protocol": "B. T-Rex 293 Cells (96 Well Format)\n(§1) T-Rex 293 cells were purchased from Invitrogen (#R71007), and stably transfected with a pcDNA4/TO_HA-B-RAF_G466V construct, using 400 ug Zeocin for selection. G466V cells are plated in ulbecco's Modified Eagle Medium (DMEM; Gibco #11965118) containing 10% fetal bovine serum (FBS; Gibco #16000044) and 0.75 ng/mL doxycycline (Selleckchem #4163) at a density of 5,000 cells/well in 50 μl on poly-D-lysine (PDL) coated, black clear bottom 96-well plates (Corning #354640) and incubated for 24 hours at 37° C. with 5% CO2. The following day 50 ul of tested compound was added at 2× concentration in DMEM with a final concentration ranging from 30 nM to 3 pM in 0.1% dimethylsulfoxide (DMSO), and incubated for 24 hours at 37° C. with 5% CO2. At the end of the experimental treatment, the media was flicked off and cells washed once with phosphate-buffered saline (PBS)++(PBS with CaCl and MgCl) and gently replacing with 200 μl PBS++ per well. The PBS++ was removed and 50 uL 4% paraformaldehyde (PFA; EMS #15710) in PBS++ was added, and incubate at room temperature for 15 minutes. Cells were washed once with PBS++ and 50 uL 0.1% Triton X-100 (Fisher #BP151-500) in PBS++ was added. Plate was incubate for 5 minutes at room temperature. Cells were was once with PBS++. Cells were blocked with 100 uL Licor blocking buffer (Licor #927-50000) for 1 hour at room temperature. Next, 50 uL of HA antibody (CST #3724) at 1:1000 in Licor blocking buffer was added, and the plate icubate overnight at 4° C. The plates were parafilmed to prevent evaporation. Plate was washed three times with 200 uL PBS++. Fifty microliters of HCS secondary antibody solution [1:1000 Hoechst (Invitrogen #H3570), 1:1000 phalloidin (Invitrogen #A22287) and 1:5000 Alexa fluor (Invitrogen #A11008)] was added and incubated for 1 hour. Plate was wash three times with 200 uL PBS++, and imaged on a high content reader (ImageXpress Micro XLS, Molecular Devices).\n(§2) The concentration of an exemplary compound that leads to half maximal degradation (DC50) as well as the maximum degradation observed (Dmax, conventionally expressed as a percentage of control) is shown below in Table 2."}, "[2]": {"target": "T2, B-RAF V600E (Homo sapiens, UniProt P15056, V600E)", "T2 construct": "expressed in transfected cells; host or cells: T-Rex 293 cells (Invitrogen #R71007)", "T2 sequence (P15056 whole entry V600E)": "as the sequence (P15056 whole entry G466V) above, with V466G, V600E counted along it", "assay": "Target protein degradation, assay A: T-Rex 293 cells, HA-B-RAF_V600E, 96 well format", "assay_type": "cell-based", "settings": "T-Rex 293 HA-B-RAF_V600E cells, 24 hours, Examples 1-82", "protocol": "A. T-Rex 293 Cells (96 well format)\nas §1, with “pcDNA4/TO_HA-B-RAF_V600E” for “pcDNA4/TO_HA-B-RAF_G466V”, “V600e” for “G466V”, “1” for “0.75”, “1 μM to 0.1” for “30”, “nM” for “nM to 3 pM”\nas §2"}},
  "data": [
    {"smiles": "N#Cc1c(NS(=O)(=O)N2CC[C@@H](F)C2)ccc(F)c1Oc1ccc2ncn(-c3ccc(N4CCN(CCN5CCN(c6ccc7c(c6)CN(C6CCC(=O)NC6=O)C7=O)CC5)CC4)cc3)c(=O)c2c1", "note": "(stereo partly drawn) [Example 10, (3R)-N-{2-cyano-3-[(3-(4-[4-(2-{4-[2-(2,6-dioxopiperidin-3-yl)-1-oxo-2,3-dihydro-1H-isoindol-5-yl]piperazin-1-yl}ethyl)piperazin-1-yl]phenyl}-4-oxo-3,4-dihydroquinazolin-6-yl)oxy]-4-fluorophenyl}-3-fluoropyrrolidine-1-sulfonamide]", "values": [
      {"measurement": "DC50", "setting": "[1]", "value": "> 30", "unit": "nM"},
      {"measurement": "DC50", "setting": "[2]", "value": "> 500", "unit": "nM"}
    ]},
    {"smiles": "N#Cc1c(NS(=O)(=O)N2CC[C@@H](F)C2)ccc(F)c1Oc1ccc2ncn(-c3ccc(N4CCN(C(=O)CC5(O)CCN(c6ccc7c(c6)CN([C@H]6CCC(=O)NC6=O)C7=O)CC5)CC4)cc3)c(=O)c2c1", "note": "[Example 4, (3R)—N-(2-cyano-3-{[3-(4-{4-[2-(1-{2-[(3S)-2,6-dioxopiperidin-3-yl]-1-oxo-2,3-dihydro-1H-isoindol-5-yl}-4-hydroxypiperidin-4-yl)acetyl]piperazin-1-yl}phenyl)-4-oxo-3,4-dihydroquinazolin-6-yl]oxy}-4-fluorophenyl)-3-fluoropyrrolidine-1-sulfonamide]", "values": [
      {"measurement": "DC50", "setting": "[1]", "value": "1 to 10", "unit": "nM"},
      {"measurement": "Dmax", "setting": "[1]", "value": "35 to 70", "unit": "%"},
      {"measurement": "DC50", "setting": "[2]", "value": "5 to 50", "unit": "nM"},
      {"measurement": "Dmax", "setting": "[2]", "value": "35 to 70", "unit": "%"}
    ]},
    {"smiles": "N#Cc1c(NS(=O)(=O)N2CC[C@@H](F)C2)ccc(F)c1Oc1ccc2ncn(-c3ccc(N4CCN(CC5CCN(c6ccc(NC7CCC(=O)NC7=O)cc6F)CC5)CC4)nc3)c(=O)c2c1", "note": "(stereo partly drawn) [Example 12, (3R)-N-(2-cyano-3-{[3-(6-{4-[(1-{4-[(2,6-dioxopiperidin-3-yl)amino]-2-fluorophenyl}piperidin-4-yl)methyl]piperazin-1-yl}pyridin-3-yl)-4-oxo-3,4-dihydroquinazolin-6-yl]oxy}-4-fluorophenyl)-3-fluoropyrrolidine-1-sulfonamide]", "values": [
      {"measurement": "DC50", "setting": "[1]", "value": "> 30", "unit": "nM"},
      {"measurement": "DC50", "setting": "[2]", "value": "5 to 50", "unit": "nM"},
      {"measurement": "Dmax", "setting": "[2]", "value": "35 to 70", "unit": "%"}
    ]},
    {"smiles": "N#Cc1c(NS(=O)(=O)N2CC[C@@H](F)C2)ccc(F)c1Oc1ccc2ncn(-c3ccc(N4CCC(c5ccc6c(c5)C(=O)N(C5CCC(=O)NC5=O)C6)CC4)cc3)c(=O)c2c1", "note": "(stereo partly drawn) [Example 32, (3R)-N-(2-cyano-3-{[3-(4-{4-[2-(2,6-dioxopiperidin-3-yl)-3-oxo-2,3-dihydro-1H-isoindol-5-yl]piperidin-1-yl}phenyl)-4-oxo-3,4-dihydroquinazolin-6-yl]oxy}-4-fluorophenyl)-3-fluoropyrrolidine-1-sulfonamide]", "values": [
      {"measurement": "DC50", "setting": "[1]", "value": "> 30", "unit": "nM"},
      {"measurement": "DC50", "setting": "[2]", "value": "50 to 500", "unit": "nM"},
      {"measurement": "Dmax", "setting": "[2]", "value": "35 to 70", "unit": "%"}
    ]},
    {"smiles": "N#Cc1c(NS(=O)(=O)N2CC[C@@H](F)C2)ccc(F)c1Oc1ccc2ncn(-c3cnc(N4CCN(C(=O)CC5(O)CCN(c6ccc7c(c6)CN([C@H]6CCC(=O)NC6=O)C7=O)CC5)CC4)nc3)c(=O)c2c1", "note": "[Example 68, (3R)-N-(2-cyano-3-{[3-(2-{4-[2-(1-{2-[(3S)-2,6-dioxopiperidin-3-yl]-1-oxo-2,3-dihydro-1H-isoindol-5-yl}-4-hydroxypiperidin-4-yl)acetyl]piperazin-1-yl}pyrimidin-5-yl)-4-oxo-3,4-dihydroquinazolin-6-yl]oxy}-4-fluorophenyl)-3-fluoropyrrolidine-1-sulfonamide]", "values": [
      {"measurement": "DC50", "setting": "[1]", "value": "1 to 10", "unit": "nM"},
      {"measurement": "Dmax", "setting": "[1]", "value": "35 to 70", "unit": "%"},
      {"measurement": "DC50", "setting": "[2]", "value": "50 to 500", "unit": "nM"},
      {"measurement": "Dmax", "setting": "[2]", "value": "35 to 70", "unit": "%"}
    ]},
    {"smiles": "N#Cc1c(NS(=O)(=O)N2CC[C@@H](F)C2)ccc(F)c1Oc1ccc2ncn(-c3ccc(N4CCN(CC5CN(c6ccc7c(c6)CN([C@H]6CCC(=O)NC6=O)C7=O)C5)CC4)cc3)c(=O)c2c1", "note": "[Example 76, (3R)—N-(2-cyano-3-{[3-(4-{4-[(1-{2-[(3S)-2,6-dioxopiperidin-3-yl]-1-oxo-2,3-dihydro-1H-isoindol-5-yl}azetidin-3-yl)methyl]piperazin-1-yl}phenyl)-4-oxo-3,4-dihydroquinazolin-6-yl]oxy}-4-fluorophenyl)-3-fluoropyrrolidine-1-sulfonamide]", "values": [
      {"measurement": "DC50", "setting": "[1]", "value": "1 to 10", "unit": "nM"},
      {"measurement": "Dmax", "setting": "[1]", "value": "≤ 35", "unit": "%"},
      {"measurement": "DC50", "setting": "[2]", "value": "5 to 50", "unit": "nM"},
      {"measurement": "Dmax", "setting": "[2]", "value": "35 to 70", "unit": "%"}
    ]},
    {"smiles": "N#Cc1c(NS(=O)(=O)N2CC[C@@H](F)C2)ccc(F)c1Oc1ccc2ncn(-c3ccn(C4CCN(CC5CCN(c6ccc7c(c6)CN(C6CCC(=O)NC6=O)C7=O)CC5)CC4)n3)c(=O)c2c1", "note": "(stereo partly drawn) [Example 75, (3R)—N-{2-cyano-3-[(3-{1-[1-({1-[2-(2,6-dioxopiperidin-3-yl)-1-oxo-2,3-dihydro-1H-isoindol-5-yl]piperidin-4-yl}methyl)piperidin-4-yl]-1H-pyrazol-3-yl}-4-oxo-3,4-dihydroquinazolin-6-yl)oxy]-4-fluorophenyl}-3-fluoropyrrolidine-1-sulfonamide]", "values": [
      {"measurement": "DC50", "setting": "[1]", "value": "1 to 10", "unit": "nM"},
      {"measurement": "Dmax", "setting": "[1]", "value": "≤ 35", "unit": "%"},
      {"measurement": "DC50", "setting": "[2]", "value": "50 to 500", "unit": "nM"},
      {"measurement": "Dmax", "setting": "[2]", "value": "35 to 70", "unit": "%"}
    ]},
    {"smiles": "N#Cc1c(NS(=O)(=O)N2CC[C@@H](F)C2)ccc(F)c1Oc1ccc2ncn(-c3ccc(N4CCN(CC5CCN(c6ccc7c(c6F)CN([C@H]6CCC(=O)NC6=O)C7=O)CC5)CC4)cc3)c(=O)c2c1", "note": "[Example 73, (3R)—N-(2-cyano-3-{[3-(4-{4-[(1-{2-[(3S)-2,6-dioxopiperidin-3-yl]-4-fluoro-1-oxo-2,3-dihydro-1H-isoindol-5-yl}piperidin-4-yl)methyl]piperazin-1-yl}phenyl)-4-oxo-3,4-dihydroquinazolin-6-yl]oxy}-4-fluorophenyl)-3-fluoropyrrolidine-1-sulfonamide]", "values": [
      {"measurement": "DC50", "setting": "[1]", "value": "1 to 10", "unit": "nM"},
      {"measurement": "Dmax", "setting": "[1]", "value": "35 to 70", "unit": "%"},
      {"measurement": "DC50", "setting": "[2]", "value": "5 to 50", "unit": "nM"},
      {"measurement": "Dmax", "setting": "[2]", "value": "35 to 70", "unit": "%"}
    ]},
    {"smiles": "N#Cc1c(NS(=O)(=O)N2CC[C@@H](F)C2)ccc(F)c1Oc1ccc2ncn(-c3ccc(N4CCN(c5ccc(C(=O)NC6CCC(=O)NC6=O)c(F)c5)CC4)cc3)c(=O)c2c1", "note": "(stereo partly drawn) [Example 72, 4-[4-(4-{6-[2-cyano-6-fluoro-3-({[(3R)-3-fluoropyrrolidin-1-yl]sulfonyl}amino)phenoxy]-4-oxo-3,4-dihydroquinazolin-3-yl}phenyl)piperazin-1-yl]-N-(2,6-dioxopiperidin-3-yl)-2-fluorobenzamide]", "values": [
      {"measurement": "DC50", "setting": "[1]", "value": "> 30", "unit": "nM"},
      {"measurement": "DC50", "setting": "[2]", "value": "> 500", "unit": "nM"}
    ]},
    {"smiles": "N#Cc1c(NS(=O)(=O)N2CC[C@@H](F)C2)ccc(F)c1Oc1ccc2ncn(-c3ccc(N4CCC(CN5CCC(c6ccc7c(c6)CN([C@H]6CCC(=O)NC6=O)C7=O)CC5)CC4)cc3)c(=O)c2c1", "note": "[Example 81, (3R)—N-(2-cyano-3-{[3-(4-{4-[(4-{2-[(3S)-2,6-dioxopiperidin-3-yl]-1-oxo-2,3-dihydro-1H-isoindol-5-yl}piperidin-1-yl)methyl]piperidin-1-yl}phenyl)-4-oxo-3,4-dihydroquinazolin-6-yl]oxy}-4-fluorophenyl)-3-fluoropyrrolidine-1-sulfonamide]", "values": [
      {"measurement": "DC50", "setting": "[2]", "value": "50 to 500", "unit": "nM"},
      {"measurement": "Dmax", "setting": "[2]", "value": "35 to 70", "unit": "%"}
    ]}
  ]
}
